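Assay format: 96-well plates, 48-hour exposure. GI50 = concentration required for 50% inhibition of growth.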 The source made the active and inactive calls. Cut-off read from the data, not from the text of the source: active = GI50 up to about 1.1 µM and inactive = higher.
What was measured:
Experiment in all cases: DTP human tumour cell line panel, 48 h
DU-145 = system: DU-145
NCI-H522 = system: NCI-H522
KM12 = system: KM12
NCI/ADR-RES = system: NCI/ADR-RES
OVCAR-5 = system: OVCAR-5
SNB-75 = system: SNB-75
NCI-H226 = system: NCI-H226
SNB-19 = system: SNB-19
RXF 393 = system: RXF 393
SK-MEL-5 = system: SK-MEL-5
HCT-15 = system: HCT-15
UACC-257 = system: UACC-257
SF-539 = system: SF-539
A549 = system: A549
HCC 2998 = system: HCC 2998
SR = system: SR
NCI-H23 = system: NCI-H23
MDA-MB-231 = system: MDA-MB-231
SF-295 = system: SF-295
NCI-H460 = system: NCI-H460

Structure (SMILES) | GI50 (DU-145) | GI50 (NCI-H522) | GI50 (KM12) | GI50 (NCI/ADR-RES) | GI50 (OVCAR-5) | GI50 (SNB-75) | GI50 (NCI-H226) | GI50 (SNB-19) | GI50 (RXF 393) | GI50 (SK-MEL-5) | GI50 (HCT-15) | GI50 (UACC-257) | GI50 (SF-539) | GI50 (A549) | GI50 (HCC 2998) | GI50 (SR) | GI50 (NCI-H23) | GI50 (MDA-MB-231) | GI50 (SF-295) | GI50 (NCI-H460)
Oc1ccc2ccccc2c1/C=C/c1ccc2c(Br)cc(Br)c(O)c2n1 | 12 µM (inactive) | 3.56 µM (inactive) | 5.4 µM (inactive) | 2.41 µM (inactive) | 7.76 µM (inactive) | 15.2 µM (inactive) | 5.02 µM (inactive) | 6.73 µM (inactive) | 8.61 µM (inactive) | 3.36 µM (inactive) | 0.787 µM | 8.49 µM (inactive) | 2.53 µM (inactive) | 4.74 µM (inactive) | 6.97 µM (inactive) | 3.12 µM (inactive) | 5.96 µM (inactive) | 5.58 µM (inactive) | 4.32 µM (inactive) | 1.75 µM (inactive)
Cc1c(N)nc([C@H](CC(N)=O)NC[C@H](N)C(N)=O)nc1C(=O)N[C@H](C(=O)N[C@H](C)[C@@H](O)[C@H](C)C(=O)N[C@H](C(=O)NCCc1nc(-c2nc(C(=O)NCCC[S+](C)C)cs2)cs1)[C@@H](C)O)C(OC1OC(CO)C(O)C(O)C1OC1OC(CO)C(O)C(OC(N)=O)C1O)c1c[nH]cn1 (stereo not given in full) | 3.66 µM (inactive) | 0.622 µM (active) | 15.6 µM (inactive) | 0.904 µM (active) | 2.35 µM (inactive) | 0.426 µM (active) | 0.222 µM (active) | 3.96 µM (inactive) | 0.236 µM (active) | 0.776 µM (active) | 3.27 µM | 12 µM (inactive) | 0.02 µM (active) | 0.716 µM (active) | 9.62 µM (inactive) | 0.109 µM (active) | 0.637 µM (active) | 15.8 µM (inactive) | 0.114 µM (active) | 0.0644 µM (active)
CCCc1nc(Cl)c(Cl)c(Cl)n1 | 35 µM (inactive) | 12.4 µM (inactive) | 38.6 µM (inactive) | 27 µM (inactive) | 31.8 µM (inactive) | 4.28 µM (inactive) | 36.6 µM (inactive) | 62.1 µM (inactive) | 19.2 µM (inactive) | 44.5 µM (inactive) | 15.8 µM | 32.7 µM (inactive) | 26.9 µM (inactive) | 19.1 µM (inactive) | 0.556 µM (active) | 5.78 µM (inactive) | 18.7 µM (inactive) | 19.3 µM (inactive) | > 60.4 µM (inactive) | 38.9 µM (inactive)
O=C1c2ccccc2NC2C(O)c3ccccc3N12 (stereo not given) | 45.6 µM (inactive) | 4.09 µM (inactive) | 35.2 µM (inactive) | 40.4 µM (inactive) | 82.2 µM (inactive) | > 100 µM (inactive) | > 100 µM (inactive) | > 100 µM (inactive) | > 100 µM (inactive) | 52.7 µM (inactive) | 34.6 µM | 15.3 µM (inactive) | > 100 µM (inactive) | 10.9 µM (inactive) | 42.9 µM (inactive) | 38.4 µM (inactive) | 29.8 µM (inactive) | > 100 µM (inactive) | 28.8 µM (inactive) | 13.2 µM (inactive)
COc1cc2c[n+](C)c3c4cc5c(cc4ccc3c2cc1OC)OCO5 [NITIDINE CHLORIDE] | 2.52 µM (inactive) | 0.24 µM (active) | 2.07 µM (inactive) | 27 µM (inactive) | 1.24 µM (inactive) | 0.22 µM (active) | 3.61 µM (inactive) | 0.698 µM (active) | 12.4 µM (inactive) | 5.27 µM (inactive) | > 100 µM | 26.1 µM (inactive) | 1.78 µM (inactive) | 0.18 µM (active) | 2.07 µM (inactive) | 0.839 µM (active) | 1.07 µM (active) | 2.62 µM (inactive) | 5.93 µM (inactive) | 1.73 µM (inactive)

From ChEMBL document CHEMBL1201862, “PubChem BioAssay data set” (2004)
